Test results as given in patent US9273095B2, “Antibiotic peptide and preparation method therefor and application therefor” (priority 2011, dated 2016).
Converted amounts (≈) assume the structure as drawn. Read-outs that look alike come from different tables or passages of the source. Marks after values point to notes of the source that are not given here. Non-standard residues stand in square brackets, D forms with d. Residues, ends and D or L forms follow the SMILES beside them.

Legend:
candida krusei = assay: microbe, parasite or virus in culture; format: cell-based; settings: for MIC: Pichia kudriavzevii, read-out: Minimal inhibitory concentration
Description: • (1) Test strains: monilia albicans (candida albicans), candida glabrata, candida krusei, candida tropicalis, aspergillus fumigatus and flavous. (2) Quality control strains: candida krusei JLC30366 (ATCC6258). Antimicrobial peptides PL-13 (SEQ ID NO: 1) under test are supplied by Jiangsu ProteLight Pharmaceutical & Biotechnology Co., LTD. […] (1) The bacterial strains which preserved on PDA slant are respectively inoculated onto PDA plate and slant medium. Activation of bacterial strains is conducted at a humidity level of 60% and 25° C. (for aspergillus) or 37° C. (for candida). (2) 0.9% stroke-physiological saline solution comprising 0.5% Tween-80 is used to prepare bacterial suspension for experiment. Hemocytometer is utilized to adjust concentration of the bacterial suspension to 1-3×10^6 CFU/ml (0.5 McFarland units) to make stock solution in reserve at -20° C. During the sensitivity test, the RPMI-1640 liquid medium is diluted 1000 times to 1-3×10^3 CFU/ml. (3) The RPMI-1640 liquid is utilized as diluent to 10-fold dilute stock solution of peptides. […] The eleventh orifice is used as living control orifice, while the twelfth one as blank control. (4) The RPMI-1640 liquid is utilized as diluent to 10-fold dilute stock solution of FCZ and ICZ. […] Ditto for other operations.

aspergillus flavous = assay: microbe, parasite or virus in culture; format: cell-based; settings: for MIC: JLC 30784 aspergillus flavous, read-out: Minimal inhibitory concentration
Method: (§1) • (1) Test strains: monilia albicans (candida albicans), candida glabrata, candida krusei, candida tropicalis, aspergillus fumigatus and flavous. Antimicrobial peptides PL-13 (SEQ ID NO: 1) under test are supplied by Jiangsu ProteLight Pharmaceutical & Biotechnology Co., LTD. […] Activation of bacterial strains is conducted at a humidity level of 60% and 25° C. (for aspergillus) or 37° C. (for candida). (2) 0.9% stroke-physiological saline solution comprising 0.5% Tween-80 is used to prepare bacterial suspension for experiment. Hemocytometer is utilized to adjust concentration of the bacterial suspension to 1-3×10^6 CFU/ml (0.5 McFarland units) to make stock solution in reserve at -20° C. During the sensitivity test, the RPMI-1640 liquid medium is diluted 1000 times to 1-3×10^3 CFU/ml. (3) The RPMI-1640 liquid is utilized as diluent to 10-fold dilute stock solution of peptides. […] The eleventh orifice is used as living control orifice, while the twelfth one as blank control. (4) The RPMI-1640 liquid is utilized as diluent to 10-fold dilute stock solution of FCZ and ICZ. […] Ditto for other operations.

aspergillus fumigatus = assay: microbe, parasite or virus in culture; format: cell-based; settings: for MIC: JLC 30506 aspergillus fumigatus, read-out: Minimal inhibitory concentration
Method: as §1

candida albicans = assay: microbe, parasite or virus in culture; format: cell-based; settings: for MIC: Candida albicans, read-out: Minimal inhibitory concentration
Method: as §1

candida glabrata = assay: microbe, parasite or virus in culture; format: cell-based; settings: for MIC: Nakaseomyces glabratus, read-out: Minimal inhibitory concentration
Method: as §1

candida tropicalis = assay: microbe, parasite or virus in culture; format: cell-based; settings: for MIC: Candida tropicalis, read-out: Minimal inhibitory concentration
Method: as §1

[1] = system: Acinetobacter calcoaceticus; assay: microbe, parasite or virus in culture; format: cell-based
Method: (§2) The experimental strains are 37 standard strains preserved in lab and clinical isolated bacteria, including drug-resistant bacteria and quality-control bacteria selecting Staphylococcus aureus ATCC29213, Enterococcus faecalis ATCC29212, Escherichia coli ATCC25922, Pseudomonas aeruginosa ATCC27853 and klebsiella pneumoniae ATCC700603.
(§3) (1) Sensitivity test is conducted with two-fold agar dilution method and Denlay multipoint inoculator. Test bacteria are cultured with nutrient broth and brain heart infusion.
(§4) (2) The drug is double diluted into different concentration with MH broth after dissolved and then placed in the plate respectively.
(§5) (3) After dissolved, MH agar culture medium are injected into the plate with drug quantitatively and mixed to make the final concentration of drug are 0.03, 0.06, 0.125, . . . , 128 μg/ml respectively.
(§6) (4) After solidification of the culture medium in the plate, test bacteria (10^4CFU/point) are inoculated by multipoint inoculator and cultured for 18 hours at constant 35° C. Then observe the results.

[2] = system: Staphylococcus epidermidis; assay: microbe, parasite or virus in culture; format: cell-based
Method: as §2, §3, §4, §5, §6

Enterococcus faecium = assay: microbe, parasite or virus in culture; format: cell-based
Method: as §2, §3, §4, §6

[3] = system: red cell suspension from healthy volunteers; assay: Hemolytic activity test; format: cell-based, human; settings: for Hemolytic activity, absorbancy (OD value) at 570 nm: 4 hours at 37° C., OD higher than 0.1 is hemolytic, n = 3
Method: (1) Samples are serial diluted with sterile PBS to 1000, 500, 250, 125, 64, 32, 16, 8, 4 μg/ml in turn and spread in 96-well plates, 100 μl per orifice.
(2) We use distilled water as positive control, sterile PBS as negative control and blank orifice with 200 μl PBS solution added. Each concentration above is made in triplicate.
(3) We take 3 ml whole blood from healthy volunteers and washed it with sterile PBS three times to prepare fresh 2% concentration red cell suspension. Then we added 100 μl red cell suspension into each orifice and made them cultured for 4 hours at 37° C. in the incubator. After centrifuged by plate-swashing centrifuge, the supernatant liquid is collected and measured absorbancy (OD value) at a wavelength of 570 nm. Then we compared the hemolytic efficiency of these concentrations.
(4) According to the documents standard, OD value which is higher than 0.1 is hemolytic concentration.

Bacillus dysenteriae = assay: Therapeutic test of oral preparation on mice with systemic infection, survival time; format: in vivo, ICR mice; settings: 80 mg/kg gavage three times a day for seven days, n = 10
Method: (§7) There are 30 male and 30 female ICR mice with the weight ranging from 18 g to 22 g. […] With trinitrophenal marking method, all the mice are raised with ordinary animal feeds in the ordinary animal houses and they can drink water freely. Alternating of light and dark is conducted every 12 hours.
(§8) 2. Infected Strains: Escherichia and Bacillus dysenteriae
(§9) (1) The preparation of bacterial suspension is the same as above.
(§10) (2) The Escherichia suspension cultured overnight is diluted to 1×10^7CFU/ml. The Bacillus dysenteriae suspension cultured overnight is diluted to 1×10^5CFU/ml. They are all applied in reserve.
(§11) (3) Except the blank control group, every other mouse is injected with 0.2 ml Escherichia suspension with the concentration of 1×10^7CFU/ml or 0.2 ml Bacillus dysenteriae suspension with the concentration of 1×10^5CFU/ml intraperitoneally to make model.
(§12) (4) Administration: The drugs are administered according to mice′ weight right after the model is ready. All the groups excepting the blank and the infected negative control groups are administered by gavaging with different dosage of drugs three times a day successively for seven days, and they are observed for fourteen days.
(§13) (5) Observe death of the animals and record their survival time.

Escherichia = assay: as above; format: in vivo, ICR mice; settings: 80 mg/kg gavage three times a day for seven days, n = 10
Method: as §7, §8, §9, §10, §11, §12, §13

[4] = JLC 30883 aspergillus fumigatus

OC(Cn1cncn1)(Cn1cncn1)c1ccc(F)cc1F [FCZ, Fluconazol, reference compound]
MIC (candida krusei; JLC 30366 candida krusei): 16 µg/mL (≈ 52.2 µM)
MIC (candida krusei; JLC 30383 candida krusei): 8 µg/mL (≈ 26.1 µM)
MIC (aspergillus flavous): > 64 µg/mL
Minimal inhibitory concentration (aspergillus flavous; JLC 40437 aspergillus flavous): >64 µg/mL
MIC (aspergillus fumigatus): > 64 µg/mL
Minimal inhibitory concentration (aspergillus fumigatus; [4]): >64 µg/mL
MIC (candida albicans; JLC 33659 candida albicans): 0.25 µg/mL (≈ 0.816 µM)
MIC (candida albicans; JLC 33660 candida albicans): 0.25 µg/mL (≈ 0.816 µM)
MIC (candida glabrata; JLC 30367 candida glabrata): 2 µg/mL (≈ 6.53 µM)
MIC (candida glabrata; JLC 31512 candida glabrata): 1 µg/mL (≈ 3.27 µM)
MIC (candida tropicalis; JLC 31379 candida tropicalis): 0.5 µg/mL (≈ 1.63 µM)
MIC (candida tropicalis; JLC 31384 candida tropicalis): 0.25 µg/mL (≈ 0.816 µM)

CCC(C)n1ncn(-c2ccc(N3CCN(c4ccc(OCC5COC(Cn6cncn6)(c6ccc(Cl)cc6Cl)O5)cc4)CC3)cc2)c1=O (stereo not drawn) [ICZ, Itraconazole, reference compound]
MIC (candida krusei; JLC 30366 candida krusei): 0.25 µg/mL (≈ 0.354 µM)
MIC (candida krusei; JLC 30383 candida krusei): 0.25 µg/mL (≈ 0.354 µM)
MIC (aspergillus flavous): 0.125 µg/mL (≈ 0.177 µM)
Minimal inhibitory concentration (aspergillus flavous; JLC 40437 aspergillus flavous): 0.125 µg/mL (≈ 0.177 µM)
MIC (aspergillus fumigatus): 0.125 µg/mL (≈ 0.177 µM)
Minimal inhibitory concentration (aspergillus fumigatus; [4]): 0.125 µg/mL (≈ 0.177 µM)
MIC (candida albicans; JLC 33659 candida albicans): 0.03 µg/mL (≈ 0.0425 µM)
MIC (candida albicans; JLC 33660 candida albicans): 0.0625 µg/mL (≈ 0.0886 µM)
MIC (candida glabrata; JLC 30367 candida glabrata): 0.0625 µg/mL (≈ 0.0886 µM)
MIC (candida glabrata; JLC 31512 candida glabrata): 0.03 µg/mL (≈ 0.0425 µM)
MIC (candida tropicalis; JLC 31379 candida tropicalis): 0.03 µg/mL (≈ 0.0425 µM)
MIC (candida tropicalis; JLC 31384 candida tropicalis): 0.03 µg/mL (≈ 0.0425 µM)

CC(=O)N[C@H](Cc1ccccc1)C(=O)N[C@H](CCCCN)C(=O)N[C@H](CCCCN)C(=O)N[C@H](CC(C)C)C(=O)N[C@H](CCCCN)C(=O)N[C@H](CCCCN)C(=O)N[C@H](CCCCN)C(=O)N[C@H](Cc1ccccc1)C(=O)N[C@H](CO)C(=O)N[C@H](CCCCN)C(=O)N[C@H](CC(C)C)C(=O)N[C@H](Cc1c[nH]c2ccccc12)C(=O)N[C@H](CC(N)=O)C(=O)N[C@H](Cc1c[nH]c2ccccc12)C(=O)N[C@H](CCCCN)C(N)=O [PL-34] (Ac-[dF][dK][dK][dL][dK][dK][dK][dF][dS][dK][dL][dW][dN][dW][dK]-NH2)
Minimal inhibitory concentration (candida krusei): 8 µg/mL (≈ 3.9 µM)
Minimal inhibitory concentration (aspergillus flavous): >64 µg/mL
Minimal inhibitory concentration (aspergillus fumigatus): >64 µg/mL
Minimal inhibitory concentration (candida albicans): 16 µg/mL (≈ 7.8 µM)
Minimal inhibitory concentration (candida glabrata): 32 µg/mL (≈ 15.6 µM)
Minimal inhibitory concentration (candida tropicalis): 4 µg/mL (≈ 1.95 µM)
MIC [1]: 1.3 µM (≈ 2.67 µg/mL)
MIC ([2]; 08-17 (MSSE) Meticillin susceptible staphylococcus epidermidis): 1.3 µM (≈ 2.67 µg/mL)
MIC ([2]; (MRSE) Methicillin-resistant Staphylococcus epidermidis ATCC12228): 1.3 µM (≈ 2.67 µg/mL)
MIC (Enterococcus faecium): 1.3 µM (≈ 2.67 µg/mL)
Hemolytic activity, absorbancy (OD value) at 570 nm ([3]; peptide 7.8125 μg/ml): 0.032
Hemolytic activity, absorbancy (OD value) at 570 nm ([3]; peptide 15.625 μg/ml): 0.041
Hemolytic activity, absorbancy (OD value) at 570 nm ([3]; peptide 31.25 μg/ml): 0.054
Hemolytic activity, absorbancy (OD value) at 570 nm ([3]; peptide 62.5 μg/ml): 0.061
Hemolytic activity, absorbancy (OD value) at 570 nm ([3]; peptide 125 μg/ml): 0.073
Hemolytic activity, absorbancy (OD value) at 570 nm ([3]; peptide 250 μg/ml): 0.087
Hemolytic activity, absorbancy (OD value) at 570 nm ([3]; peptide 500 μg/ml): 0.135
Hemolytic activity, absorbancy (OD value) at 570 nm ([3]; peptide 1000 μg/ml): 0.317
hemolytic toxicity (in words) ([3]; summary of Table 9): little hemolytic toxicity

CCS(=O)(=O)CCn1c([N+](=O)[O-])cnc1C [Tinidazole]
Mean survival Time (Bacillus dysenteriae; observed fourteen days): 7.0* day
Mortality of mice in different days after infection (Bacillus dysenteriae; day 4): 2
Mortality of mice in different days after infection (Bacillus dysenteriae; day 5): 1
Mortality of mice in different days after infection (Bacillus dysenteriae; day 6): 2
Mortality of mice in different days after infection (Bacillus dysenteriae; day 7): 2
Mortality of mice in different days after infection (Bacillus dysenteriae; day 8): 1
Mortality of mice in different days after infection (Bacillus dysenteriae; day 9): 1
Mean survival Time (Escherichia; observed fourteen days): 7.5* day
Mortality of mice in different days after infection (Escherichia; day 4): 1
Mortality of mice in different days after infection (Escherichia; day 5): 2
Mortality of mice in different days after infection (Escherichia; day 6): 2
Mortality of mice in different days after infection (Escherichia; day 7): 1
Mortality of mice in different days after infection (Escherichia; day 8): 1
Mortality of mice in different days after infection (Escherichia; day 9): 2
